Patent publication US10407666B2, “Recombinant vectors” (priority 2008, dated 2019)
Entries after “also recorded” stand apart in the source; their conditions may differ.

B1: yCD2 protein: yeast cytosine deaminase with A23L/V108I/I140L substitutions, human codon optimized gene (SEQ ID NO:4) (protein, UniProt Q12178 1-158, looked up, variant A23L V108I I140L)
Cytosine deaminase: MVTGGMASKWDQKGMDIAYEEALLGYKEGGVPIGGCLINNKDGSVLGRGHNMRFQKGSATLHGEISTLENCGRLEGKVYKDTTLYTTLSPCDMCTGAIIMYGIPRCVIGENVNFKSKGEKYLQTRGHEVVVVDDERCKKLMKQFIDERPQDWFEDIGE

What was measured:
[1] = tested on: recurrent anaplastic oligodendroglioma; test: Patient dog with spontaneous recurrent anaplastic oligodendroglioma, vector by CED plus 5-FC; details: second cycle 160 mg/kg/day by mouth, stopped after fifth day
[2] = tested on: Mouse CT26 tumor explants; test: 5-FC cell killing assay (MTS) on CT26 tumor explants; type: cell-based; details: explant animal 31: CT26, AC3-yCD2(V) E5 + 5-FC, 3.5 5-FC dosings
[3] = tested on: U-87 cells; test: yCD protein level in infected U-87 cells (FIG. 4); type: cell-based, human

Molecule	adverse event [1]	5-FC sensitivity IC50 (mM) [2]	CD protein level compared to wild type yCD protein [3]
Nc1nc(=O)[nH]cc1F [Vector 5-FC, 5-fluorocytosine]	development of rash	poorly responsive; also recorded: Not sensitive	
B1			higher levels
